Test results taken from the NIST ThermoML archive (doi:10.1021/je5000692).
± gives the expanded uncertainty stated by the source.

Experiment: relative permittivity at various frequencies (dimensionless)
Conditions: Liquid, Frequency=0.001 MHz, Coaxial cylinder capacitor

CCCCCCCC [octane]
relative permittivity (303.07 K, 5010 kPa): 1.94148 ± 0.0007
relative permittivity (303.07 K, 10050 kPa): 1.94875 ± 0.0007
relative permittivity (303.07 K, 20060 kPa): 1.96184 ± 0.00072
relative permittivity (303.07 K, 25030 kPa): 1.9682 ± 0.00072
relative permittivity (333.25 K, 5040 kPa): 1.90899 ± 0.00072
relative permittivity (333.25 K, 6780 kPa): 1.91211 ± 0.00071
relative permittivity (333.25 K, 10020 kPa): 1.91777 ± 0.0007
relative permittivity (333.25 K, 20050 kPa): 1.93287 ± 0.0007
relative permittivity (333.25 K, 25050 kPa): 1.93989 ± 0.0007
relative permittivity (373.16 K, 5040 kPa): 1.85755 ± 0.00069
relative permittivity (373.16 K, 10030 kPa): 1.8684 ± 0.00069
relative permittivity (373.16 K, 20030 kPa): 1.88737 ± 0.00069
relative permittivity (373.16 K, 25060 kPa): 1.89562 ± 0.00071
relative permittivity (398.17 K, 5010 kPa): 1.8243 ± 0.00067
relative permittivity (398.17 K, 10010 kPa): 1.8374 ± 0.00067
relative permittivity (398.17 K, 20050 kPa): 1.85955 ± 0.00069
relative permittivity (398.17 K, 25040 kPa): 1.87023 ± 0.00069
